In patent publication US10457687B2, “Aminoacid derivatives, a process for their preparation and pharmaceutical compositions containing them” (LES LABORATOIRES SERVIER, priority 2015, dated 2019):

Key:
Mcl-1 protein = Mcl-1 protein (Homo sapiens, UniProt Q07820); experiment: Inhibition of Mcl-1 by the fluorescence polarisation technique (Method 1 or Method 2); format: binding; details: for IC50: fluorescence polarisation, Fluorescein labelled ligand, Method 1 (not underlined) or Method 2 (underlined), read-out: IC50 (μM) Mcl-1 FP
Chain of Mcl-1 protein (Q07820 whole entry): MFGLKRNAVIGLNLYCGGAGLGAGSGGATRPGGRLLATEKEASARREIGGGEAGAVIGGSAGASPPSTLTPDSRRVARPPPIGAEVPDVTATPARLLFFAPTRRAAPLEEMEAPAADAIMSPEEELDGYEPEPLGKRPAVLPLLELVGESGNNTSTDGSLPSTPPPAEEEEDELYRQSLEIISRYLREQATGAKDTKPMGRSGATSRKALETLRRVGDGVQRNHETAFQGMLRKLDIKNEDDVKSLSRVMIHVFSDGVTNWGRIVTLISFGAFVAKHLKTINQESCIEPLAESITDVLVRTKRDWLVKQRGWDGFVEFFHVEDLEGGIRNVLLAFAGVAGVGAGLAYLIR
In short: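 Binding measured by FP, with Mcl-1 protein and fluorescein-labelled ligand mixed with compounds in an 11-point series at 5% final DMSO. Method 2 used 10 nM each of protein and ligand in phosphate buffer (20 mM Na2HPO4, 1 mM EDTA, 50 mM NaCl, pH 7.4); Method 1 used 5 nM protein, 1 nM ligand in HEPES buffer (10 mM HEPES, 150 mM NaCl, 0.05% Tween 20, pH 7.4).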

[1] = tested on: H929 multiple myeloma tumour line; experiment: In vitro cytotoxicity, MTT assay, 48 hours; format: cell-based; details: H929 cells, 48 hours exposure, cell viability
Protocol: The cytotoxicity studies were carried out on the H929 multiple myeloma tumour line.
The cells are distributed onto microplates and exposed to the test compounds for 48 hours.

[2] = partial inhibitors, @ 10 μM test compound

Compound | IC50 (Mcl-1 protein) [µM] | IC50 ([1]; Homo sapiens, NCI-H929) [nM] | also measured
Cc1c(-c2c(-c3ccco3)sc3ncnc(N[C@H](Cc4ccccc4Cl)C(=O)O)c23)ccc(OCCN2CCN(C)CC2)c1Cl (single isomer, unassigned) [Example 10, 2-chloro-N-[5-{3-chloro-2-methyl-4-[2-(4-methylpiperazin-1-yl)ethoxy]phenyl}-6-(furan-2-yl)thieno[2,3-d]pyrimidin-4-yl]-D-phenylalanine] |  | > 3750 | inhibition at 3.3 µM (Mcl-1 protein; partial inhibitors, @ 3.3 μM test compound, read-out: percentage fluorescence polarisation inhibition, Mcl-1 FP): 72.8%
COc1ccccc1CC(Nc1ncnc2sc(-c3ccc(F)cc3)c(-c3ccc(OCCN4CCN(C)CC4)c(Cl)c3C)c12)C(=O)O [Example 1, N-[(5Sa)-5-{3-chloro-2-methyl-4-[2-(4-methylpiperazin-1-yl)ethoxy]phenyl}-6-(4-fluorophenyl)thieno[2,3-d]pyrimidin-4-yl]-2-methoxy-D-phenylalanine] | 0.127 | > 600 | 
COc1ccccc1C[C@@H](Nc1ncnc2sc(-c3ccc(F)cc3)c(-c3ccc(OCCN4CCN(C)CC4)c(Cl)c3C)c12)C(=O)O [Example 2, N-[(5Ra)-5-{3-chloro-2-methyl-4-[2-(4-methylpiperazin-1-yl)ethoxy]phenyl}-6-(4-fluorophenyl)thieno[2,3-d]pyrimidin-4-yl]-2-methoxy-D-phenylalanine] |  |  | percentage fluorescence polarisation inhibition, Mcl-1 FP (Mcl-1 protein; [2]): 56.9% @ 10 μM; IC50 [1]: > 600 nM
Cc1c(-c2c(-c3ccc(F)cc3)sc3ncnc(NC(Cc4ccccc4OCc4ccnn4C)C(=O)O)c23)ccc(OCCN2CCN(C)CC2)c1Cl [Example 3, N-[(5Sa)-5-{3-chloro-2-methyl-4-[2-(4-methylpiperazin-1-yl)ethoxy]phenyl}-6-(4-fluorophenyl)thieno[2,3-d]pyrimidin-4-yl]-2-[(1-methyl-1H-pyrazol-5-yl)methoxy]-D-phenylalanine] | 0.114 | 318 | 
CCOc1nccc(COc2ccccc2CC(Nc2ncnc3sc(-c4ccc(F)cc4)c(-c4ccc(OCCN5CCN(C)CC5)c(Cl)c4C)c23)C(=O)O)n1 [Example 4, N-[(5Sa)-5-{3-chloro-2-methyl-4-[2-(4-methylpiperazin-1-yl)ethoxy]phenyl}-6-(4-fluorophenyl)thieno[2,3-d]pyrimidin-4-yl]-2-[(2-ethoxypyrimidin-4-yl)methoxy]-D-phenylalanine] | 0.005 | 215 | 
CCCCn1nccc1COc1ccccc1CC(Nc1ncnc2sc(-c3ccc(F)cc3)c(-c3ccc(OCCN4CCN(C)CC4)c(Cl)c3C)c12)C(=O)O [Example 6, 2-[(1-butyl-1H-pyrazol-5-yl)methoxy]-N-[(5Sa)-5-{3-chloro-2-methyl-4-[2-(4-methylpiperazin-1-yl)ethoxy]phenyl}-6-(4-fluorophenyl)thieno[2,3-d]pyrimidin-4-yl]-D-phenylalanine] | 0.013 | > 600 | 
Cc1c(-c2c(-c3ccco3)sc3ncnc(N[C@H](Cc4ccccc4C(N)=O)C(=O)O)c23)ccc(OCCN2CCN(C)CC2)c1Cl [Example 11, 2-carbamoyl-N-[5-{3-chloro-2-methyl-4-[2-(4-methylpiperazin-1-yl)ethoxy]phenyl}-6-(furan-2-yl)thieno[2,3-d]pyrimidin-4-yl]-D-phenylalanine] |  | > 3750 | inhibition at 10 µM (Mcl-1 protein; partial inhibitors, @ 10 μM test compound, read-out: percentage fluorescence polarisation inhibition, Mcl-1 FP): 35.5%
Cc1c(-c2c(-c3ccco3)sc3ncnc(NC(Cc4ccccc4OCc4ccccn4)C(=O)O)c23)ccc(OCCN2CCN(C)CC2)c1Cl [Example 12, N-[(5Sa)-5-{3-chloro-2-methyl-4-[2-(4-methylpiperazin-1-yl)ethoxy]phenyl}-6-(furan-2-yl)thieno[2,3-d]pyrimidin-4-yl]-2-(pyridin-2-ylmethoxy)-D-phenylalanine] | 0.014 | 647 | 
Cc1c(-c2c(-c3ccco3)sc3ncnc(NC(Cc4ccccc4OCc4ccccn4)C(=O)O)c23)ccc(OCCN2CCN(C)CC2)c1Cl [Example 13, N-[(5Ra)-5-{3-chloro-2-methyl-4-[2-(4-methylpiperazin-1-yl)ethoxy]phenyl}-6-(furan-2-yl)thieno[2,3-d]pyrimidin-4-yl]-2-(pyridin-2-ylmethoxy)-D-phenylalanine] |  |  | percentage fluorescence polarisation inhibition, Mcl-1 FP (Mcl-1 protein; [2]): 58% @ 10 μM; IC50 [1]: > 3750 nM
Cc1c(-c2c(-c3ccc(F)o3)sc3ncnc(NC(Cc4ccccc4O)C(=O)O)c23)ccc(OCCN2CCN(C)CC2)c1Cl [Example 14, N-[(5Sa)-5-{3-chloro-2-methyl-4-[2-(4-methylpiperazin-1-yl)ethoxy]phenyl}-6-(5-fluorofuran-2-yl)thieno[2,3-d]pyrimidin-4-yl]-2-hydroxy-D-phenylalanine] | 0.038 | 721 | 
COc1ccccc1C[C@@H](Nc1ncnc2sc(-c3ccc(F)o3)c(-c3ccc(OCCN4CCN(C)CC4)c(Cl)c3C)c12)C(=O)O [Example 15, N-[(5Ra)-5-{3-chloro-2-methyl-4-[2-(4-methylpiperazin-1-yl)ethoxy]phenyl}-6-(5-fluorofuran-2-yl)thieno[2,3-d]pyrimidin-4-yl]-2-methoxy-D-phenylalanine] |  |  | percentage fluorescence polarisation inhibition, Mcl-1 FP (Mcl-1 protein; [2]): 40.05% @ 10 μM; IC50 [1]: > 3750 nM
CCCCn1nccc1COc1ccccc1C[C@@H](Nc1ncnc2sc(-c3ccc(F)o3)c(-c3ccc(OCCN4CCN(C)CC4)c(Cl)c3C)c12)C(=O)O [Example 23, 2-[(1-butyl-1H-pyrazol-5-yl)methoxy]-N-[(5Ra)-5-{3-chloro-2-methyl-4-[2-(4-methylpiperazin-1-yl)ethoxy]phenyl}-6-(5-fluorofuran-2-yl)thieno[2,3-d]pyrimidin-4-yl]-D-phenylalanine] |  |  | percentage fluorescence polarisation inhibition, Mcl-1 FP (Mcl-1 protein; partial inhibitors, @ 1 μM test compound): 41.27% @ 1 μM; IC50 [1]: > 600 nM
Cc1c(-c2c(-c3ccc(F)o3)sc3ncnc(N[C@H](Cc4ccccc4OCc4ccnc(OCC(F)(F)F)n4)C(=O)O)c23)ccc(OCCN2CCN(C)CC2)c1Cl [Example 25, N-[(5Ra)-5-{3-chloro-2-methyl-4-[2-(4-methylpiperazin-1-yl)ethoxy]phenyl}-6-(5-fluorofuran-2-yl)thieno[2,3-d]pyrimidin-4-yl]-2-{[2-(2,2,2-trifluoroethoxy)pyrimidin-4-yl]methoxy}-D-phenylalanine] |  |  | percentage fluorescence polarisation inhibition, Mcl-1 FP (Mcl-1 protein; [2]): 55.5% @ 10 μM; IC50 [1]: > 600 nM

More lines, main results first:

IC50 (Mcl-1 protein) [µM] | Compound | IC50 ([1]; Homo sapiens, NCI-H929) [nM] | also measured
0.006 | COc1ccccc1CC(Nc1ncnc2sc(-c3ccc(F)o3)c(-c3ccc(OCCN4CCN(C)CC4)c(Cl)c3C)c12)C(=O)O [Example 16, N-[(5Sa)-5-{3-chloro-2-methyl-4-[2-(4-methylpiperazin-1-yl)ethoxy]phenyl}-6-(5-fluorofuran-2-yl)thieno[2,3-d]pyrimidin-4-yl]-2-methoxy-D-phenylalanine] | 99.3 | 
0.057 | Cc1c(-c2c(-c3ccc(F)o3)sc3ncnc(NC(Cc4ccccc4OCC(F)(F)F)C(=O)O)c23)ccc(OCCN2CCN(C)CC2)c1Cl [Example 17, N-[(5Sa)-5-{3-chloro-2-methyl-4-[2-(4-methylpiperazin-1-yl)ethoxy]phenyl}-6-(5-fluorofuran-2-yl)thieno[2,3-d]pyrimidin-4-yl]-2-(2,2,2-trifluoroethoxy)-D-phenylalanine] | 294 | 
0.026 | Cc1c(-c2c(-c3ccc(F)o3)sc3ncnc(NC(Cc4ccccc4OCc4ccnn4C)C(=O)O)c23)ccc(OCCN2CCN(C)CC2)c1Cl [Example 20, N-[(5Sa)-5-{3-chloro-2-methyl-4-[2-(4-methylpiperazin-1-yl)ethoxy]phenyl}-6-(5-fluorofuran-2-yl)thieno[2,3-d]pyrimidin-4-yl]-2-[(1-methyl-1H-pyrazol-5-yl)methoxy]-D-phenylalanine] | 78.6 | 
0.006 | CCn1nccc1COc1ccccc1CC(Nc1ncnc2sc(-c3ccc(F)o3)c(-c3ccc(OCCN4CCN(C)CC4)c(Cl)c3C)c12)C(=O)O [Example 21, N-[(5Sa)-5-{3-chloro-2-methyl-4-[2-(4-methylpiperazin-1-yl)ethoxy]phenyl}-6-(5-fluorofuran-2-yl)thieno[2,3-d]pyrimidin-4-yl]-2-[(1-ethyl-1H-pyrazol-5-yl)methoxy]-D-phenylalanine] | 39.7 | 
0.012 | Cc1c(-c2c(-c3ccc(F)o3)sc3ncnc(NC(Cc4ccccc4OCc4ccnc(OCC(F)(F)F)n4)C(=O)O)c23)ccc(OCCN2CCN(C)CC2)c1Cl [Example 26, N-[(5Sa)-5-{3-chloro-2-methyl-4-[2-(4-methylpiperazin-1-yl)ethoxy]phenyl}-6-(5-fluorofuran-2-yl)thieno[2,3-d]pyrimidin-4-yl]-2-{[2-(2,2,2-trifluoroethoxy)pyrimidin-4-yl]methoxy}-D-phenylalanine] | 6.36 | 
0.011 | COc1ccccc1-c1nccc(COc2ccccc2CC(Nc2ncnc3sc(-c4ccc(F)o4)c(-c4ccc(OCCN5CCN(C)CC5)c(Cl)c4C)c23)C(=O)O)n1 [Example 27, N-[(5Sa)-5-{3-chloro-2-methyl-4-[2-(4-methylpiperazin-1-yl)ethoxy]phenyl}-6-(5-fluorofuran-2-yl)thieno[2,3-d]pyrimidin-4-yl]-2-{[2-(2-methoxyphenyl)pyrimidin-4-yl]methoxy}-D-phenylalanine] | 2.09 | 
1.98 | CCOC(=O)C(Cc1ccccc1OCc1ccnc(-c2ccccc2OCCOC)n1)Nc1ncnc2sc(-c3ccc(F)cc3)c(-c3ccc(OCCN(C)C)c(Cl)c3C)c12 [Example 260, ethyl N-[(5Sa)-5-{3-chloro-4-[2-(dimethylamino)ethoxy]-2-methylphenyl}-6-(4-fluorophenyl)thieno[2,3-d]pyrimidin-4-yl]-2-({2-[2-(2-methoxyethoxy)phenyl]pyrimidin-4-yl}methoxy)-D-phenylalaninate] |  | 
